{"source": "patent US6638938B1", "about": "“Method for preventing tissue injury from hypoxia” (Cell Therapeutics, Inc., priority 1993, dated 2003)", "key": {"isolated rat kidneys": {"tested_on": "isolated rat kidneys", "assay": "ischemic isolated rat kidney reperfused with human neutrophils", "conditions": "Ischemia + neutrophils + Lisofylline", "text": "This example illustrates an in vivo kidney model of hypoxic tissue injury using Lisofylline. Isolated rat kidneys were rendered ischemic and reperfused with human neutrophils (prepared as in example 4 above) according to the procedure in Linas et al;, Am. J. Physiol. 24:728-735, 1988. Lisofylline decreased injury in this ischemic isolated rat kidney model according to the data presented in Table 8 below wherein GFR refers to glomerular filtration rate and TNa refers to tubular sodium reabsorption."}, "IFN-γ": {"tested_on": "IFN-γ", "assay": "IFN-γ sandwich ELISA of BAL supernatants and plasma", "assay_type": "in vivo, Balb/C mice", "method": "(§1) This example illustrates a study of Lisofylline in a murine hemorrhage and resuscitation model. Male Balb/C mice, 8-12 weeks of age, were obtained from Harlan-Sprague Dawley (Indianapolis, Ind.). The animals were kept on a 12 hour light/dark cycle with free access to food and water. With this model, 30% of the calculated blood volume (approximately 0.55 ml for a 20 gram mouse) was withdrawn from a methoxyflurane anesthetized mouse by cardiac puncture over a 60-second period. The blood was collected into a heparinized syringe (5 units heparin), kept at 37° C. for one hour, then reinfused into the mouse through a retroorbital plexus injection. Using this method, one is able to resuscitate all hemorrhaged mice without complication. The total period of methoxyflurane anesthesia is less than 2 minutes in all cases. The mortality rate with this hemorrhage protocol is approximately 12%, with all deaths occurring over the 24 hours post hemorrhage, and most deaths occurring within the one hour post hemorrhage.\n(§2) Mice were treated with 100 mg/kg Lisofylline in 0.2 ml PBS and given initially i.v., by retroorbital injection, then i.p. every 8 hours for a total of 9 doses. In hemorrhaged mice, the Lisofylline in PBS was added to the shed blood, and then given retroorbitally with the blood during the resuscitation phase. In hemorrhaged Balb/C mice (n=3), sacrificed by exsanguination 5 minutes after receiving Lisofylline with the blood used for resuscitation, serum levels of Lisofylline were 44±6 μg/ml.\n(§3) Three days following hemorrhage and resuscitation or the initiation of treatment with Lisofylline therapy in normal treated animals, mice were anesthetized with methoxyflurane and sacrificed by exsanguination through cardiac puncture into a heparinized (5 U) syringe. Normal mice, not subjected to hemorrhage/resuscitation or to treatment with Lisofylline, were included. Bronchoalveolar lavage (BAL) specimens, using 1.0 ml PBS injected and aspirated three times into the trachea and lungs, were obtained. Cells contained in the BAL were collected by centrifugation of BAL specimens. […] As determined by cytology, there was less than 3% contamination of alveolar macrophages with lymphocytes, neutrophils, or other mononuclear cell populations when BAL specimens are collected in normal Balb/C mice, but approximately 11±2% of isolated cells are neutrophils in mice subjected 3 days previously to 30% blood volume hemorrhage with resuscitation one hour later. […]\n(§4) TNFα and IFN-γconcentrations in BAL supernatants and plasma were determined with sandwich ELISA assays using the monoclonal antibody pairs (i.e., unbiotinylated or biotinylated) MP6-XT3 for TNFα and XMG1.2 for IFN-γ(Pharmingen San Diego, Calif.). […]"}, "isolated rat lungs": {"tested_on": "isolated rat lungs", "assay": "human neutrophil perfused isolated rat lungs given IL-8 intratracheally", "method": "After Sprague-Dawley adult male rats (350±50 g) were anesthetized with pentobarbital (60 mg/kg i.p.), a tracheotomy cannula was placed and secured with 2-O ligature. Lungs were ventilated with a tidal volume of 3 cc at a rate of 60/min. with a gas mixture containing 5% CO2 21% O2 and 74% N2. Following midline thoracotomy, a 4-O ligature was loosely placed around the root of the pulmonary outflow tract. Heparin (200 units) was injected into the right ventricle and allowed to recirculate. A rigid cannula was placed into the right ventricle, threaded into the pulmonary outflow tract, and secured with the ligature. The left ventricle was incised and a drainage cannula was inserted and secured with a 2-O ligature. Lungs and heart were excised, placed in an isolated lung chamber, and ventilated with 2.5 cm of positive end-expiratory pressure. Lungs were perfused free of blood using Earle's Balanced Salt Solution (Sigma) containing calcium chloride (0.265 g/L), magnesium sulfate (0.09767 g/L), potassium chloride (0.4 g/L), sodium chloride (6.8 g/L), sodium phosphate monobasic (0. 122 g/L) and D-glucose (1 g/L) to which was added sodium bicarbonate (2.2 g/L.) and Ficoll-70 (Sigma)(40 g/L), and the final pH adjusted to 7.40. […] Pulmonary artery pressures were continuously monitored with a transducer and weight increases were monitored with a force transducer. […]"}, "PA and DAG generation": {"tested_on": "PA and DAG generation", "conditions": "cited from earlier work"}, "TNFα": {"tested_on": "TNFα", "assay": "TNFα sandwich ELISA of BAL supernatants and plasma", "assay_type": "in vivo, Balb/C mice", "method": "as §1, §2, §3, §4"}, "neutrophils in BAL": {"tested_on": "neutrophils in BAL", "assay": "percentage of neutrophils among BAL samples", "assay_type": "in vivo, Balb/C mice", "conditions": "hemorrhage/resuscitated mice treated; 11±2% in untreated; p<0.05", "method": "as §1, with “The total period of methoxyflurane anesthesia is less than 2 minutes in all cases. The mortality rate with this hemorrhage protocol is approximately 12%, with all deaths occurring over the 24 hours post hemorrhage, and most deaths occurring within the one hour post hemorrhage.” left out\nas §3, with “syringe.” for “syringe. Normal mice, not subjected to hemorrhage/resuscitation or to treatment with Lisofylline, were included. Bronchoalveolar lavage (BAL) specimens, using 1.0 ml PBS injected and aspirated three times into the trachea and lungs, were obtained. Cells contained in the BAL were collected by centrifugation of BAL specimens.”"}, "[1]": {"tested_on": "LPAAT (lysophosphatidic acyltransferase)", "assay": "inhibition of LPAAT activity", "assay_type": "biochemical", "conditions": "LPAAT activated by IL-1"}, "[2]": {"conditions": "hemorrhaged/resuscitated mice treated for 72 hours"}, "[3]": {"conditions": "normal, unhemorrhaged mice treated"}}, "data": [{"smiles": "C[C@@H](O)CCCCn1c(=O)c2c(ncn2C)n(C)c1=O", "note": "[Lisofylline, 1-R-(5-hydroxyhexyl)-3,7-dimethylxanthine]", "values": [{"measurement": "TNa (tubular sodium reabsorption)", "setting": "isolated rat kidneys; control 90%, ischemia + neutrophils 40%", "value": "78% (n = 6)"}, {"measurement": "GFR (glomerular filtration rate)", "setting": "isolated rat kidneys; control 250, ischemia + neutrophils 113", "value": "202 (n = 6)"}, {"measurement": "IFN-γ levels in BAL supernatants", "setting": "IFN-γ; [2]", "value": "2 ± 2", "unit": "pg/mL"}, {"measurement": "IFN-γ levels in plasma", "setting": "IFN-γ; [2]", "value": "173 ± 120", "unit": "pg/mL"}, {"measurement": "IFN-γ content of BAL supernatants", "setting": "IFN-γ; [3]", "value": "16 ± 16", "unit": "pg/mL"}, {"measurement": "IFN-γ in plasma", "setting": "IFN-γ; [3]", "value": "66 ± 48", "unit": "pg/mL"}, {"measurement": "Lung Weight Gain", "setting": "isolated rat lungs; Neutrophils + IL-8 + Lisofylline 1 μM", "value": "0.0 ± 0.0 (3)δ g"}, {"measurement": "Lung Weight Gain", "setting": "isolated rat lungs; Neutrophils + IL-8 + Lisofylline 50 μM", "value": "0.0 ± 0.0 (4)δ g"}, {"measurement": "concentrations at which Lisofylline effectively inhibits PA synthesis", "setting": "PA and DAG generation", "value": "10 to 30", "unit": "µM"}, {"measurement": "plasma TNFα concentrations", "setting": "TNFα; hemorrhage/resuscitated/Lisofylline treated mice", "value": "218 ± 49", "unit": "pg/mL"}, {"measurement": "TNFα concentrations in BAL supernatants", "setting": "TNFα; hemorrhaged/resuscitated mice treated", "value": "73 ± 45", "unit": "pg/mL"}, {"measurement": "plasma TNFα concentrations", "setting": "TNFα; normal/Lisofylline treated mice", "value": "116 ± 36", "unit": "pg/mL"}, {"measurement": "TNFα in BAL supernatants", "setting": "TNFα; unhemorrhaged mice treated, p<0.01 versus normal untreated", "value": "676±80", "unit": "pg/mil"}, {"measurement": "percentage of neutrophils among BAL samples", "setting": "neutrophils in BAL", "value": "6±2", "unit": "%"}, {"measurement": "mode of LPAAT inhibition", "setting": "[1]", "value": "direct inactivator and competitive inhibitor"}]}]}
